{
  "source": "PubChem BioAssay AID1919003",
  "about": "(Molecular Pharmacology Branch, DTP, NCI, 2023)",
  "test_system": "786-0 complex spheroids with HUVEC/MSC, growth % test/control",
  "test": "Anticancer human tumor 786-0 cell line growth inhibition [AhR];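 note: compound exposure lasted seven days before the read-out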",
  "settings": "for IC50: curve of first compound; for viability, T/C: stronger effect = lower value",
  "source_text": "Multicellular complex tumor spheroid response to aryl hydrocarbon receptor antagonists in combination with a variety of drugs and investigational agents in selected tumor cell lines\nThe current study was undertaken to assess response to aryl hydrocarbon receptor antagonists in combination with standard-of-care drugs and investigational agents in solid tumor complex spheroid models. Complex spheroids include a stromal component modeled by human endothelial cells (HUVEC) and fibroblasts modeled by human mesenchymal stem cells (MSCs). The concentration ranges selected for each drug and investigational agent were based upon clinically achievable concentrations if the clinical Cmax of the agent was known.\nCompounds. The drugs and investigational agents: BAY 2416964 (NSC825713), GNF351 (NSC835774), CH-223191 (NSC835775), CPI-455 (NSC825282), aza-TdCyd (NSC777586), decitabine (NSC127716), belinostat (NSC758774), entinostat (NSC756642), pevonedistat (NSC761192), tazemetostat (NSC777109), talazoparib (NSC765396), olaparib (NSC753686), selinexor (NSC780203), nedisertib (M3814, NSC802822), bortezomib (NSC756655), venetoclax (NSC766270), doxorubicin (NSC123127), elimusertib (BAY189344, NSC800525), ceralasertib (AZD6738, NSC777638), TAK-243 (NSC785004), alisertib (NSC759677), etoposide (NSC141540), topotecan (NSC609699), eribulin (NSC707389), gemcitabine (NSC613327), carboplatin (NSC241240), cisplatin (NSC119875), and SN-38 (NSC673596) were obtained from the National Cancer Institute (NCI) Developmental Therapeutics Program Chemical Repository (32). The FDA-approved anticancer drug set is available from the Developmental Therapeutics Program at https://dtp.cancer.gov/organization/dscb/obtaining/available plates.htm. […] The stock solutions were prepared in dimethyl sulfoxide (DMSO, Sigma-Aldrich, St. Louis, MO, cat. D2650), except for the platinum compounds which were prepared in saline (Quality Biological, Gaithersburg, MD, cat. 114-055-101), at 800-fold the tested concentration and stored at -70 degrees C prior to their use. All drugs and investigational agents were tested over a range starting from a high concentration at or near the clinical Cmax and decreasing in half-log increments. If the clinical Cmax for an agent had not been determined, the highest concentration tested was 10 microM (Table 1).\nCell Culture. All cells were maintained in an incubator at 37 degrees C and 5% CO2 with 95% humidity. The PDC lines were cultured according to standard operating procedures established by the NCI PDMR (https://pdmr.cancer.gov). Briefly, all PDCs were thawed and cultured in Matrigel-coated flasks prepared with a working solution of 1X Ham's F-12 nutrient mix, without supplementation (Invitrogen, Waltham, MA, cat. 11765054), 100 U/mL penicillin-streptomycin (Invitrogen, cat. 15140122), and 2.5% Matrigel (Corning Inc., Corning, NY, cat. 354248) for the first three passages. All PDCs were cultured in complete DMEM/F-12 media containing advanced DMEM/F-12 (Invitrogen, cat. 12634028), 4.9% defined fetal bovine serum, heat inactivated (HyClone Laboratories Inc., Logan, UT, cat. SH30070.03HI), 389 ng/mL hydrocortisone (Sigma-Aldrich, cat. H4001), 9.7 ng/mL human EGF recombinant protein (Invitrogen, cat. PHG0313), 23.4 microg/mL adenine (Sigma-Aldrich, cat. A2786), 97.3 U/mL penicillin-streptomycin (Invitrogen, cat. 15140122), 1.9 mM L-glutamine (Invitrogen, cat. 25030081), and 9.7 microM Y-27632 dihydrochloride (Tocris Bioscience, Bristol, United Kingdom, cat. 1254). The PDCs were cultured in complete DMEM/F12 media without 10 microM Y-27632 dihydrochloride for at least two passages prior to the screen. The established cell lines NCI-H1341 and […] were cultured in DMEM/F-12, HEPES (Invitrogen, cat. 11330032), 5% defined fetal bovine serum (HyClone Laboratories Inc., cat. SH30070.03), ITS premix universal culture supplement [insulin (5 microg/mL), transferrin (5 microg/mL), and selenious acid (5 ng/mL)] […]",
  "data": [
    {"smiles": "COc1cc(C2c3cc4c(cc3C(OC3OC5COC(C)OC5C(O)C3O)C3COC(=O)C23)OCO4)cc(OC)c1O", "note": "(stereo not given) + CC(CO)NC(=O)c1cc(-c2ccc(Cl)cc2)nn(-c2cnn(C)c2)c1=O", "values": [
      {"measurement": "IC50", "setting": "second compound 0.1 µM", "value": 597, "unit": "nM"},
      {"measurement": "IC50", "setting": "second compound 0.316 µM", "value": 517, "unit": "nM"},
      {"measurement": "IC50", "setting": "second compound 1 µM", "value": 422, "unit": "nM"},
      {"measurement": "IC50", "setting": "second compound 3.16 µM", "value": 232, "unit": "nM"},
      {"measurement": "IC50", "setting": "second compound 10 µM", "value": 255, "unit": "nM"},
      {"measurement": "viability, T/C", "setting": "second compound 0.1 µM, first compound 0.0316 µM", "value": 89.7, "unit": "%"},
      {"measurement": "viability, T/C", "setting": "second compound 0.1 µM, first compound 0.1 µM", "value": 82, "unit": "%"},
      {"measurement": "viability, T/C", "setting": "second compound 0.1 µM, first compound 0.316 µM", "value": 74.2, "unit": "%"},
      {"measurement": "viability, T/C", "setting": "second compound 0.1 µM, first compound 1 µM", "value": 29.7, "unit": "%"},
      {"measurement": "viability, T/C", "setting": "second compound 0.1 µM, first compound 3.16 µM", "value": 18.8, "unit": "%"},
      {"measurement": "viability, T/C", "setting": "second compound 0.1 µM, first compound 10 µM", "value": 5.08, "unit": "%"},
      {"measurement": "viability, T/C", "setting": "second compound 0.316 µM, first compound 0.0316 µM", "value": 66, "unit": "%"},
      {"measurement": "viability, T/C", "setting": "second compound 0.316 µM, first compound 0.1 µM", "value": 72.5, "unit": "%"},
      {"measurement": "viability, T/C", "setting": "second compound 0.316 µM, first compound 0.316 µM", "value": 69.1, "unit": "%"},
      {"measurement": "viability, T/C", "setting": "second compound 0.316 µM, first compound 1 µM", "value": 24.9, "unit": "%"},
      {"measurement": "viability, T/C", "setting": "second compound 0.316 µM, first compound 3.16 µM", "value": 13.1, "unit": "%"},
      {"measurement": "viability, T/C", "setting": "second compound 0.316 µM, first compound 10 µM", "value": 6.05, "unit": "%"},
      {"measurement": "viability, T/C", "setting": "second compound 1 µM, first compound 0.0316 µM", "value": 79.1, "unit": "%"},
      {"measurement": "viability, T/C", "setting": "second compound 1 µM, first compound 0.1 µM", "value": 94.9, "unit": "%"},
      {"measurement": "viability, T/C", "setting": "second compound 1 µM, first compound 0.316 µM", "value": 58.7, "unit": "%"},
      {"measurement": "viability, T/C", "setting": "second compound 1 µM, first compound 1 µM", "value": 20.2, "unit": "%"},
      {"measurement": "viability, T/C", "setting": "second compound 1 µM, first compound 3.16 µM", "value": 16, "unit": "%"},
      {"measurement": "viability, T/C", "setting": "second compound 1 µM, first compound 10 µM", "value": 4.53, "unit": "%"},
      {"measurement": "viability, T/C", "setting": "second compound 3.16 µM, first compound 0.0316 µM", "value": 83.7, "unit": "%"},
      {"measurement": "viability, T/C", "setting": "second compound 3.16 µM, first compound 0.1 µM", "value": 65.6, "unit": "%"},
      {"measurement": "viability, T/C", "setting": "second compound 3.16 µM, first compound 0.316 µM", "value": 44.8, "unit": "%"},
      {"measurement": "viability, T/C", "setting": "second compound 3.16 µM, first compound 1 µM", "value": 24.4, "unit": "%"},
      {"measurement": "viability, T/C", "setting": "second compound 3.16 µM, first compound 3.16 µM", "value": 17.5, "unit": "%"},
      {"measurement": "viability, T/C", "setting": "second compound 3.16 µM, first compound 10 µM", "value": 5.67, "unit": "%"},
      {"measurement": "viability, T/C", "setting": "second compound 10 µM, first compound 0.0316 µM", "value": 88.3, "unit": "%"},
      {"measurement": "viability, T/C", "setting": "second compound 10 µM, first compound 0.1 µM", "value": 78.8, "unit": "%"},
      {"measurement": "viability, T/C", "setting": "second compound 10 µM, first compound 0.316 µM", "value": 40.2, "unit": "%"},
      {"measurement": "viability, T/C", "setting": "second compound 10 µM, first compound 1 µM", "value": 22.2, "unit": "%"},
      {"measurement": "viability, T/C", "setting": "second compound 10 µM, first compound 3.16 µM", "value": 13.9, "unit": "%"},
      {"measurement": "viability, T/C", "setting": "second compound 10 µM, first compound 10 µM", "value": 3.72, "unit": "%"}
    ]}
  ]
}
